Patent US9738634B2, “Heterocyclic amide compound and herbicide” (SYNGENTA PARTICIPATIONS AG, priority 2013, dated 2017)

Legend:
Format in all cases: in vivo
barnyard grass [1] = test: Test Example 1: weedkilling efficacy, preemergent weed treatment in the submerged state; A: barnyard grass; conditions: treatment dosage 252 g/ha
How it was run: (§1)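 Visual scores against set criteria were taken 3 weeks after treatment. Compounds, as diluted emulsions at specified g/ha, went onto the water surface of 4 cm-flooded alluvial soil pots on the day weeds were sown and 2.5-leaf rice was transplanted; greenhouse held 25–30 °C.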

bulrush [2] = test: Test Example 1: weedkilling efficacy, preemergent weed treatment in the submerged state; B: bulrush; conditions: treatment dosage 252 g/ha
How it was run: as §1

oval-leafed pondweed [3] = test: Test Example 1: weedkilling efficacy, preemergent weed treatment in the submerged state; C: oval-leafed pondweed; conditions: treatment dosage 252 g/ha
How it was run: as §1

transplanted rice = test: Test Example 1: preemergent weed treatment in the submerged state, effect on crop; a: transplanted rice; conditions: treatment dosage 252 g/ha
How it was run: as §1

barnyard grass [4] = test: Test Example 2: weedkilling efficacy, growth period weed treatment in the submerged state; A: barnyard grass; conditions: treatment dosage 252 g/ha
How it was run: (§2)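 Barnyard grass, bulrush and oval-leafed pondweed sown in alluvial soil under 4 cm flooding, greenhouse 25 to 30° C. At 1-2 leaf stage, water-diluted emulsion applied to the water surface at stated g/ha dosages; effects scored 3 weeks later.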

bulrush [5] = test: Test Example 2: weedkilling efficacy, growth period weed treatment in the submerged state; B: bulrush; conditions: treatment dosage 252 g/ha
How it was run: as §2

oval-leafed pondweed [6] = test: Test Example 2: weedkilling efficacy, growth period weed treatment in the submerged state; C: oval-leafed pondweed; conditions: treatment dosage 252 g/ha
How it was run: as §2

crabgrass [7] = test: Test Example 3: weedkilling efficacy through soil treatment; D: crabgrass; conditions: treatment dosage 315 g/ha
How it was run: (§3)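 Crop and weed responses were judged three weeks after a uniform surface spray of the water-diluted emulsion at the given g/ha rate. Seeds sat beneath about 1.5 cm of sterilized diluvial soil, and boxes stood in a greenhouse at 25 to 30° C.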

green foxtail [8] = test: Test Example 3: weedkilling efficacy through soil treatment; E: green foxtail; conditions: treatment dosage 315 g/ha
How it was run: as §3

barnyard grass [9] = test: Test Example 3: weedkilling efficacy through soil treatment; F: barnyard grass; conditions: treatment dosage 315 g/ha
How it was run: as §3

wild oat [10] = test: Test Example 3: weedkilling efficacy through soil treatment; G: wild oat; conditions: treatment dosage 315 g/ha
How it was run: as §3

black-grass [11] = test: Test Example 3: weedkilling efficacy through soil treatment; H: black-grass; conditions: treatment dosage 315 g/ha
How it was run: as §3

Italian ryegrass [12] = test: Test Example 3: weedkilling efficacy through soil treatment; I: Italian ryegrass; conditions: treatment dosage 315 g/ha
How it was run: as §3

common wind-grass [13] = test: Test Example 3: weedkilling efficacy through soil treatment; J: common wind-grass; conditions: treatment dosage 315 g/ha
How it was run: as §3

Indian mallow [14] = test: Test Example 3: weedkilling efficacy through soil treatment; K: Indian mallow; conditions: treatment dosage 315 g/ha
How it was run: as §3

redroot pigweed [15] = test: Test Example 3: weedkilling efficacy through soil treatment; L: redroot pigweed; conditions: treatment dosage 315 g/ha
How it was run: as §3

chickweed [16] = test: Test Example 3: weedkilling efficacy through soil treatment; N: chickweed; conditions: treatment dosage 315 g/ha
How it was run: as §3

catchweed [17] = test: Test Example 3: weedkilling efficacy through soil treatment; O: catchweed; conditions: treatment dosage 315 g/ha
How it was run: as §3

birds-eye speedwell [18] = test: Test Example 3: weedkilling efficacy through soil treatment; p: birds-eye speedwell; conditions: treatment dosage 315 g/ha
How it was run: as §3

directly sown rice [19] = test: Test Example 3: soil treatment, effect on crop; b: directly sown rice; conditions: treatment dosage 315 g/ha
How it was run: as §3

corn [20] = test: Test Example 3: soil treatment, effect on crop; c: corn; conditions: treatment dosage 315 g/ha
How it was run: as §3

soybean [21] = test: Test Example 3: soil treatment, effect on crop; d: soybean; conditions: treatment dosage 315 g/ha
How it was run: as §3

wheat [22] = test: Test Example 3: soil treatment, effect on crop; e: wheat; conditions: treatment dosage 315 g/ha
How it was run: as §3

beet [23] = test: Test Example 3: soil treatment, effect on crop; f: beet; conditions: treatment dosage 315 g/ha
How it was run: as §3

rapeseed [24] = test: Test Example 3: soil treatment, effect on crop; g: rapeseed; conditions: treatment dosage 315 g/ha
How it was run: as §3

crabgrass [25] = test: Test Example 4: weedkilling efficacy by foliar treatment; D: crabgrass; conditions: treatment dosage 315 g/ha
How it was run: (§4)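 Seeds are spot-sown into sterilized diluvial soil and covered with about 1.5 cm of soil. After 14 days' greenhouse growth at 25 to 30° C, plants are sprayed on stems and leaves with diluted emulsion at the stated g/ha rate, then scored at 3 weeks.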

green foxtail [26] = test: Test Example 4: weedkilling efficacy by foliar treatment; E: green foxtail; conditions: treatment dosage 315 g/ha
How it was run: as §4

barnyard grass [27] = test: Test Example 4: weedkilling efficacy by foliar treatment; F: barnyard grass; conditions: treatment dosage 315 g/ha
How it was run: as §4

wild oat [28] = test: Test Example 4: weedkilling efficacy by foliar treatment; G: wild oat; conditions: treatment dosage 315 g/ha
How it was run: as §4

black-grass [29] = test: Test Example 4: weedkilling efficacy by foliar treatment; H: black-grass; conditions: treatment dosage 315 g/ha
How it was run: as §4

Italian ryegrass [30] = test: Test Example 4: weedkilling efficacy by foliar treatment; I: Italian ryegrass; conditions: treatment dosage 315 g/ha
How it was run: as §4

common wind-grass [31] = test: Test Example 4: weedkilling efficacy by foliar treatment; J: common wind-grass; conditions: treatment dosage 315 g/ha
How it was run: as §4

Indian mallow [32] = test: Test Example 4: weedkilling efficacy by foliar treatment; K: Indian mallow; conditions: treatment dosage 315 g/ha
How it was run: as §4

redroot pigweed [33] = test: Test Example 4: weedkilling efficacy by foliar treatment; L: redroot pigweed; conditions: treatment dosage 315 g/ha
How it was run: as §4

chickweed [34] = test: Test Example 4: weedkilling efficacy by foliar treatment; N: chickweed; conditions: treatment dosage 315 g/ha
How it was run: as §4

catchweed [35] = test: Test Example 4: weedkilling efficacy by foliar treatment; O: catchweed; conditions: treatment dosage 315 g/ha
How it was run: as §4

birds-eye speedwell [36] = test: Test Example 4: weedkilling efficacy by foliar treatment; p: birds-eye speedwell; conditions: treatment dosage 315 g/ha
How it was run: as §4

directly sown rice [37] = test: Test Example 4: foliar treatment, effect on crop; b: directly sown rice; conditions: treatment dosage 315 g/ha
How it was run: as §4

corn [38] = test: Test Example 4: foliar treatment, effect on crop; c: corn; conditions: treatment dosage 315 g/ha
How it was run: as §4

soybean [39] = test: Test Example 4: foliar treatment, effect on crop; d: soybean; conditions: treatment dosage 315 g/ha
How it was run: as §4

wheat [40] = test: Test Example 4: foliar treatment, effect on crop; e: wheat; conditions: treatment dosage 315 g/ha
How it was run: as §4

beet [41] = test: Test Example 4: foliar treatment, effect on crop; f: beet; conditions: treatment dosage 315 g/ha
How it was run: as §4

rapeseed [42] = test: Test Example 4: foliar treatment, effect on crop; g: rapeseed; conditions: treatment dosage 315 g/ha
How it was run: as §4

SMILES: CC1=C(c2ccccc2)C(=O)N(C(C)(C)C(=O)Nc2cc(F)cc(F)n2)CO1 [B-2-33]
- A (barnyard grass) weedkilling efficacy grade (barnyard grass [1]): 5 (weed kill ratio 90% or more, (practically complete withering))
- B (bulrush) weedkilling efficacy grade (bulrush [2]): 5 (weed kill ratio 90% or more, (practically complete withering))
- C (oval-leafed pondweed) weedkilling efficacy grade (oval-leafed pondweed [3]): 5 (weed kill ratio 90% or more, (practically complete withering))
- a (transplanted rice) effect on crop grade (transplanted rice): 3 (weed kill ratio 40% or more, less than 70%)
- A (barnyard grass) weedkilling efficacy grade (barnyard grass [4]): 5 (weed kill ratio 90% or more, (practically complete withering))
- B (bulrush) weedkilling efficacy grade (bulrush [5]): 5 (weed kill ratio 90% or more, (practically complete withering))
- C (oval-leafed pondweed) weedkilling efficacy grade (oval-leafed pondweed [6]): 5 (weed kill ratio 90% or more, (practically complete withering))
- D (crabgrass) weedkilling efficacy grade (crabgrass [7]): 5 (weed kill ratio 90% or more, (practically complete withering))
- E (green foxtail) weedkilling efficacy grade (green foxtail [8]): 5 (weed kill ratio 90% or more, (practically complete withering))
- F (barnyard grass) weedkilling efficacy grade (barnyard grass [9]): 5 (weed kill ratio 90% or more, (practically complete withering))
- G (wild oat) weedkilling efficacy grade (wild oat [10]): 5 (weed kill ratio 90% or more, (practically complete withering))
- H (black-grass) weedkilling efficacy grade (black-grass [11]): 5 (weed kill ratio 90% or more, (practically complete withering))
- I (Italian ryegrass) weedkilling efficacy grade (Italian ryegrass [12]): 5 (weed kill ratio 90% or more, (practically complete withering))
- J (common wind-grass) weedkilling efficacy grade (common wind-grass [13]): 5 (weed kill ratio 90% or more, (practically complete withering))
- K (Indian mallow) weedkilling efficacy grade (Indian mallow [14]): 5 (weed kill ratio 90% or more, (practically complete withering))
- L (redroot pigweed) weedkilling efficacy grade (redroot pigweed [15]): 4 (weed kill ratio 70% or more, less than 90%)
- N (chickweed) weedkilling efficacy grade (chickweed [16]): 4 (weed kill ratio 70% or more, less than 90%)
- O (catchweed) weedkilling efficacy grade (catchweed [17]): 5 (weed kill ratio 90% or more, (practically complete withering))
- P (birds-eye speedwell) weedkilling efficacy grade (birds-eye speedwell [18]): 5 (weed kill ratio 90% or more, (practically complete withering))
- b (directly sown rice) effect on crop grade (directly sown rice [19]): 5 (weed kill ratio 90% or more, (practically complete withering))
- c (corn) effect on crop grade (corn [20]): 3 (weed kill ratio 40% or more, less than 70%)
- d (soybean) effect on crop grade (soybean [21]): 4 (weed kill ratio 70% or more, less than 90%)
- e (wheat) effect on crop grade (wheat [22]): 5 (weed kill ratio 90% or more, (practically complete withering))
- f (beet) effect on crop grade (beet [23]): 1 (weed kill ratio 5% or more, less than 20%)
- g (rapeseed) effect on crop grade (rapeseed [24]): 5 (weed kill ratio 90% or more, (practically complete withering))
- D (crabgrass) weedkilling efficacy grade (crabgrass [25]): 5 (weed kill ratio 90% or more, (practically complete withering))
- E (green foxtail) weedkilling efficacy grade (green foxtail [26]): 5 (weed kill ratio 90% or more, (practically complete withering))
- F (barnyard grass) weedkilling efficacy grade (barnyard grass [27]): 5 (weed kill ratio 90% or more, (practically complete withering))
- G (wild oat) weedkilling efficacy grade (wild oat [28]): 5 (weed kill ratio 90% or more, (practically complete withering))
- H (black-grass) weedkilling efficacy grade (black-grass [29]): 5 (weed kill ratio 90% or more, (practically complete withering))
- I (Italian ryegrass) weedkilling efficacy grade (Italian ryegrass [30]): 5 (weed kill ratio 90% or more, (practically complete withering))
- J (common wind-grass) weedkilling efficacy grade (common wind-grass [31]): 5 (weed kill ratio 90% or more, (practically complete withering))
- K (Indian mallow) weedkilling efficacy grade (Indian mallow [32]): 4 (weed kill ratio 70% or more, less than 90%)
- L (redroot pigweed) weedkilling efficacy grade (redroot pigweed [33]): 4 (weed kill ratio 70% or more, less than 90%)
- N (chickweed) weedkilling efficacy grade (chickweed [34]): 4 (weed kill ratio 70% or more, less than 90%)
- O (catchweed) weedkilling efficacy grade (catchweed [35]): 5 (weed kill ratio 90% or more, (practically complete withering))
- P (birds-eye speedwell) weedkilling efficacy grade (birds-eye speedwell [36]): 5 (weed kill ratio 90% or more, (practically complete withering))
- b (directly sown rice) effect on crop grade (directly sown rice [37]): 5 (weed kill ratio 90% or more, (practically complete withering))
- c (corn) effect on crop grade (corn [38]): 3 (weed kill ratio 40% or more, less than 70%)
- d (soybean) effect on crop grade (soybean [39]): 4 (weed kill ratio 70% or more, less than 90%)
- e (wheat) effect on crop grade (wheat [40]): 4 (weed kill ratio 70% or more, less than 90%)
- f (beet) effect on crop grade (beet [41]): 4 (weed kill ratio 70% or more, less than 90%)
- g (rapeseed) effect on crop grade (rapeseed [42]): 4 (weed kill ratio 70% or more, less than 90%)
